# Results as given in ChEMBL document CHEMBL1201862, “PubChem BioAssay data set” (2004).
# Active and inactive are the calls of the source.
# Tests used:
# CAAX prenyl protease 1 = CAAX prenyl protease 1 (Saccharomyces cerevisiae S288c, UniProt P47154); assay: yeast CAAX protease Ste24 inhibition – biochemical, S. cerevisiae, plate reader, cherry-pick, dose response (AID 488815)
# CAAX prenyl protease 2 = CAAX prenyl protease 2 (Homo sapiens, UniProt Q9Y256); assay: inhibition of Ras-converting CAAX protease Rce1 – biochemical, yeast membranes, quenched-peptide fluorescence, cherry-pick, dose response (AID 588849)
# [1] = molecular target: T1, Short transient receptor potential channel 4 (Mus musculus, UniProt Q9QUQ5); assay: calcium entry via TRPC4 opening agents – cell-based, HEK293 TRPC4/mu-opioid, Fluo-4 calcium, dose response (AID 434937); format: functional
# T1 sequence (Q9QUQ5 whole entry): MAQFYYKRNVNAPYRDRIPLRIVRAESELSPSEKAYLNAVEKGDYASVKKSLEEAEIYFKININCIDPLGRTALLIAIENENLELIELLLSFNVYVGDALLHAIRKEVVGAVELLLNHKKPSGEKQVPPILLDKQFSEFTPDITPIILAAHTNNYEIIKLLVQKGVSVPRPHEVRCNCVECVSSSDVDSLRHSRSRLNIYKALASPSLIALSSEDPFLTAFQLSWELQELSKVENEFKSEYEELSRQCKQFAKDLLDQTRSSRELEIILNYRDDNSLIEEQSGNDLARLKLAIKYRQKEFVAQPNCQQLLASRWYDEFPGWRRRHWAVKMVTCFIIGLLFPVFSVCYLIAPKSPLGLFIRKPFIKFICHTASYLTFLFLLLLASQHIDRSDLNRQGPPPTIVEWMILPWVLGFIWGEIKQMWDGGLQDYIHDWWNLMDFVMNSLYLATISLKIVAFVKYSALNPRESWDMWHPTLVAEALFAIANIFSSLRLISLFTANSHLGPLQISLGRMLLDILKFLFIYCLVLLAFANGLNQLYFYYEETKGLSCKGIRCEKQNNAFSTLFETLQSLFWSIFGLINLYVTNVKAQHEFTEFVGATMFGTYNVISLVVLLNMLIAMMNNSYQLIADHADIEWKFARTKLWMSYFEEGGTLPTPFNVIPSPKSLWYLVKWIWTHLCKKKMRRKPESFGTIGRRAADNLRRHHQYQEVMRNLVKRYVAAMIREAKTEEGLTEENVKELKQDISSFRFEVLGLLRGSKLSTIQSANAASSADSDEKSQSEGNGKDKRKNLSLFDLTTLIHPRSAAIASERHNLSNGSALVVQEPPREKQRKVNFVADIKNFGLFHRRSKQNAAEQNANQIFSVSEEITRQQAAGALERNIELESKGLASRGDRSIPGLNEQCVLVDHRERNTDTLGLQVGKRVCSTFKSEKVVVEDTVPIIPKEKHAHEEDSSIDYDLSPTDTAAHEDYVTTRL
# [2] = molecular target: Delta-type opioid receptor (Homo sapiens, UniProt P41143); assay: Counterscreen for agonists of heterodimerization of the mu 1 (OPRM1) and delta 1 (OPRD1) opioid receptors: Luminescence-based cell-based high throughput dose response assay to identify agonists of OPRD1 homodimerization. [Related pubchem assays (depositor defined):AID504326, AID504355, AID504692, AID504904, AID504905]; format: functional
# Mu-type opioid receptor = Mu-type opioid receptor (Homo sapiens, UniProt P35372); assay: Counterscreen for agonists of heterodimerization of the mu 1 (OPRM1) and delta 1 (OPRD1) opioid receptors: Luminescence-based cell-based high throughput dose response assay to identify agonists of OPRM1 homodimerization.; format: functional;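 further: U2OS cells expressing OPRM1 and beta-arrestin as split beta-galactosidase partners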
# [3] = molecular target: 5-hydroxytryptamine receptor 5A (Homo sapiens, UniProt P47898); assay: Counterscreen for agonists of OPRM1-OPRD1 heterodimerization: luminescence-based cell-based high throughput dose response assay to identify agonists of 5-hydroxytryptamine (serotonin) 5A receptor (HTR5A). [Related pubchem assays (depositor defined):AID504326, AID504355, AID504692, AID504904, AID504905]; format: functional
# [4] = NIH-3T3 fibroblast cytotoxicity, dose response, cytotoxicity control, cell-based, fluorescence, Alamar Blue, secondary assay (AID 2327); format: functional;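 further: NIH-3T3 mouse fibroblasts cultured with fluconazole at 8 µg/mL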
# [5] = molecular target: G-protein coupled receptor 35 (Homo sapiens, UniProt Q9HC97); assay: inhibition of zaprinast-stimulated GPR35 beta-arrestin translocation – imaging, U2OS, beta-arrestin-GFP, zaprinast agonist, primary screen (AID 2058); format: functional;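 further: antagonist potency meaning inhibition of agonist-induced arrestin redistribution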
# [6] = luciferase reporter signal suppression in cells – H4 neuroglioma cells, luminescence, dose response (AID 1990); format: functional, cell-based
# [7] = tested on: Streptococcus sp. 'group A'; assay: Streptococcus pyogenes SK(-)GAS viability under kanamycin – luminescence, BacTiterGlo, confirmation, counter-screen for streptokinase expression inhibitor project, dose response (AID 1900); format: functional, organism-based
# BJ [8] = assay: BJ-TERT fibroblast viability loss – cell-based, RAS-independent, luminescence, dose response (AID 1933); format: functional; settings: Homo sapiens
# [9] = Luminescence Cell-Based Dose Response HTS to Identify Inhibitors of 5'UTR Stem-Loop Driven Prion Protein mRNA Translation in H4 Neuroglioblastoma Cells. [Related pubchem assays: 1827 (Project Summary), 1813 (Primary HTS)]; format: functional
# BJ [10] = assay: cells; format: functional, cell-based; settings: Homo sapiens
# [11] = fluconazole-exposed Candida albicans growth modulators – fluorescence, retest, confirmation (AID 2467); format: functional, cell-based
# [12] = molecular target: T2, Serine/threonine-protein phosphatase (Candida dubliniensis (strain CD36 / CBS 7987 / NCPF 3949 / NRRLY-17841) (Yeast), UniProt B9W6M3); assay: blockers of CaCl2-induced CDRE-lacZ signaling – S. cerevisiae, luminescence, secondary, dose response (AID 2388); format: functional, cell-based;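 further: yeast reporter cells carrying a calcineurin-responsive lacZ construct stimulated with calcium chloride; luminescent beta-galactosidase reporter signal in whole cells rather than isolated phosphatase activity; potency for inhibition where a drop in reporter signal means calcineurin blockade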
# T2 sequence (B9W6M3 whole entry): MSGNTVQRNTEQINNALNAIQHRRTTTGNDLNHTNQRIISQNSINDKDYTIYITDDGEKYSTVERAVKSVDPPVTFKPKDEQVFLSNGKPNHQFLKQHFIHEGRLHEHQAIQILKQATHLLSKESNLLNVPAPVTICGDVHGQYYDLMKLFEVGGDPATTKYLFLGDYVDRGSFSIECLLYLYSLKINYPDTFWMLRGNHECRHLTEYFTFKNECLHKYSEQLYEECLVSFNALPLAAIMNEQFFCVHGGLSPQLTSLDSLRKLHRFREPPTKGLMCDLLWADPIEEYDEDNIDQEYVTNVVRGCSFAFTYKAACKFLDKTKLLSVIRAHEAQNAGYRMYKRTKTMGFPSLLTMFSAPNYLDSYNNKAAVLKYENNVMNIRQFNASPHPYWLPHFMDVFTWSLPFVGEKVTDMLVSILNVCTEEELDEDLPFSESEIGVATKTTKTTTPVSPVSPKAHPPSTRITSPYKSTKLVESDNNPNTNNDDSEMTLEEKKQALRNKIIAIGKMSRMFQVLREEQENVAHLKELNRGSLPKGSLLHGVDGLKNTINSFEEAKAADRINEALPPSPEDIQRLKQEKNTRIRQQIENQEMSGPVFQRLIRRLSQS
# BJ [13] = assay: BJ-TERT-LT-ST fibroblast viability loss – cell-based, RAS-independent, luminescence, dose response (AID 1935); format: functional; settings: Homo sapiens;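 further: BJ fibroblasts immortalized with TERT plus LT and ST oncogenes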
# [14] = DRD fibroblast viability loss – cell-based, non-viral oncogenic, luminescence, dose response (AID 1934); format: functional; settings: Homo sapiens
# Streptococcus = assay: GAS UMAA2166 growth inhibition – luminescence, BacTiterGlo, counter-screen for streptokinase expression inhibitor project, dose response (AID 1915); format: functional, organism-based;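 further: potency for reduction of bacterial viability or growth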
# [15] = molecular target: Cyclin-dependent kinase 5/CDK5 activator 1 (Homo sapiens, UniProt Q00535); assay: blockade of human CDK5 activity – biochemical, cherry-picked samples, set 2, dose response (AID 504545)
# [16] = HEK-293T viability loss after treatment – luminescence, T-cell screen hits, cytotoxicity control for TCR NF-kB inhibitor project, dose response (AID 489026); format: functional, cell-based;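 further: cells exposed to compound about 14 hours before the viability readout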
# Nonstructural protein 1 = Nonstructural protein 1 (Influenza A virus, UniProt Q194T2); format: functional, Influenza A virus (A/California/07/2009(H1N1))
# Cysteine protease ATG4B = molecular target: T3, Cysteine protease ATG4B (Homo sapiens, UniProt Q9Y4P1); format: functional;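 further: Fluorescence-based dose-response confirmation assay measuring inhibition of ATG4B activity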
# T3 sequence (Q9Y4P1 whole entry): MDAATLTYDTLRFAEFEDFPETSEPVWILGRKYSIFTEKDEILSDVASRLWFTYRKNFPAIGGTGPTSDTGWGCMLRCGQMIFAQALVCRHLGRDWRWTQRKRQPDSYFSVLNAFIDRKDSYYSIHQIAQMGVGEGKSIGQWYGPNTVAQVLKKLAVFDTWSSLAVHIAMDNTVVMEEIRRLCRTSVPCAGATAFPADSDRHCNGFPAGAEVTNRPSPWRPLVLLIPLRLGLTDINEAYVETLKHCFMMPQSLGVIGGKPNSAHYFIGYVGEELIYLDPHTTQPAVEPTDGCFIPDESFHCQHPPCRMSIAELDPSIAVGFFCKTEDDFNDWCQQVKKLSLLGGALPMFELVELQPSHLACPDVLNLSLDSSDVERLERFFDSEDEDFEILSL
# Phospholipase A2 = Phospholipase A2 (Homo sapiens, UniProt P04054); format: functional;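 further: confirmatory dose-response counterscreen on phospholipase A2, testing hits that came from an ultra-high-throughput screen for ATG4B inhibitors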
# [17] = molecular target: T4, Apoptotic protease-activating factor 1 (Homo sapiens, UniProt O14727); format: functional
# T4 sequence (O14727 whole entry): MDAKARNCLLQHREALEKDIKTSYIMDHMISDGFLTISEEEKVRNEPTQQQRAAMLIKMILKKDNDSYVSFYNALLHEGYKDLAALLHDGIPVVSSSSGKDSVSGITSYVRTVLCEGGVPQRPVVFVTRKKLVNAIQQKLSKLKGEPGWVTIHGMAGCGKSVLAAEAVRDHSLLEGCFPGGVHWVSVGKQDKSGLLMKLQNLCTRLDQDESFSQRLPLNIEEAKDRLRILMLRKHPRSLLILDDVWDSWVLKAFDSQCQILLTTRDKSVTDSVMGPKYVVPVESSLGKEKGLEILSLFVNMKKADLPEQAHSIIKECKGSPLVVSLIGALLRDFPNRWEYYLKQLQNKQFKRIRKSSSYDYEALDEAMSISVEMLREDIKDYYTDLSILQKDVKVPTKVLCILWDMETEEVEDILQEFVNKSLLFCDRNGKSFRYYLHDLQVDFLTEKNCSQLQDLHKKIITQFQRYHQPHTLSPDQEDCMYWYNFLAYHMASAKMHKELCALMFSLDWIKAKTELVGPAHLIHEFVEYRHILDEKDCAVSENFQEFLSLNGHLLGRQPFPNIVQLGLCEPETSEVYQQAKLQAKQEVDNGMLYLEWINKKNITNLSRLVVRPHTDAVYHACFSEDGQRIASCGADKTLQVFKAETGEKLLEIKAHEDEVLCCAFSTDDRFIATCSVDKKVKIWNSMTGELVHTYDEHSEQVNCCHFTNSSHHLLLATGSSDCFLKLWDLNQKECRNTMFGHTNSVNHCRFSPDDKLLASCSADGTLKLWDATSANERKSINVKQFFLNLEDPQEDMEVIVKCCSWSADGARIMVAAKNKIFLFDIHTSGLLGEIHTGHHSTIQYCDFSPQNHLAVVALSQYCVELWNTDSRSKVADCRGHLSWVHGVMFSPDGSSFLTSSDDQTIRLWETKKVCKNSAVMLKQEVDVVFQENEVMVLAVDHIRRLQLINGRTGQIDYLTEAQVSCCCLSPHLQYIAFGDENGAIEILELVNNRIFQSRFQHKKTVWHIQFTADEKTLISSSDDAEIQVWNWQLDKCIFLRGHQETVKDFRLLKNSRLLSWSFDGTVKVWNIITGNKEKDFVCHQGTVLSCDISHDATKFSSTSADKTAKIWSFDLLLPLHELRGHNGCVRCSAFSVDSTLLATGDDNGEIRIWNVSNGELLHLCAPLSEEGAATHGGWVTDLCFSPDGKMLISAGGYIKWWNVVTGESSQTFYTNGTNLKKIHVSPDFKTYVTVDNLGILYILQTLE
# BJ [18] = assay: growth inhibition of engineered Ras-driven BJ cells – cell-based, alamar blue fluorescence, cherrypicked samples, dose response (AID 2631); format: functional; settings: Homo sapiens;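 further: confirmatory dose-response assay in RAS-dependent BJ fibroblasts engineered with TERT, LT and ST, with cytotoxicity read by fluorescence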
# Beta-arrestin-1 = Beta-arrestin-1 (Homo sapiens, UniProt P49407); assay: beta-arrestin/AP2 interaction blockers, potency – biochemical, cherry pick 1, beta2-adaptin appendage, flow cytometry, dose response (AID 588783); format: functional
# [19] = molecular target: ATP-dependent molecular chaperone HSP82 (Candida albicans (strain WO-1) (Yeast), UniProt C4YTQ8); assay: steroid-induced GRE reporter decrease in yeast – S. cerevisiae, luminescence, Hsp90 inhibitor project, dose response (AID 2400); format: functional, cell-based;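 further: beta-galactosidase luminescence from glucocorticoid response element reporter as proxy for Hsp90 function; inhibitor potency where signal loss means Hsp90 inhibition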
# ATP-dependent molecular chaperone HSP82, sequence (C4YTQ8 whole entry): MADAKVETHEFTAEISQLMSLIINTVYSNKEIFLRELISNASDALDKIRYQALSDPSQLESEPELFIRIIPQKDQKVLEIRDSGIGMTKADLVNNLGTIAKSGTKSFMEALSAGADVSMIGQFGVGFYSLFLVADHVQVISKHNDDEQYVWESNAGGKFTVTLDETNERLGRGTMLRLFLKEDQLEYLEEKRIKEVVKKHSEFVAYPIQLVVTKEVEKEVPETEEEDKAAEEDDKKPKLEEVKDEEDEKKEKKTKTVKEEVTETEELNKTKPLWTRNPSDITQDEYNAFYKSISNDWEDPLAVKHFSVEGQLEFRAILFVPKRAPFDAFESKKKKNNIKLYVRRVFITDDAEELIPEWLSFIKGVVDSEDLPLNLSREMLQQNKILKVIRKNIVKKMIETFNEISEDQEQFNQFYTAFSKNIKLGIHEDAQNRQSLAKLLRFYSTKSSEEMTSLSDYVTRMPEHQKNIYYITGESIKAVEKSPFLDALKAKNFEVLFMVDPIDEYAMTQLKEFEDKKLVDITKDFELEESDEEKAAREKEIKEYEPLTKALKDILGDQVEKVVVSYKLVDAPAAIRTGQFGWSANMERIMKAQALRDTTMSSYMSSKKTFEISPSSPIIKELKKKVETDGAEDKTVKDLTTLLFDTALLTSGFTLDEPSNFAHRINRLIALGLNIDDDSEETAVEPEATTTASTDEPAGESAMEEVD
# Nonstructural protein 1, sequence (Q194T2 whole entry): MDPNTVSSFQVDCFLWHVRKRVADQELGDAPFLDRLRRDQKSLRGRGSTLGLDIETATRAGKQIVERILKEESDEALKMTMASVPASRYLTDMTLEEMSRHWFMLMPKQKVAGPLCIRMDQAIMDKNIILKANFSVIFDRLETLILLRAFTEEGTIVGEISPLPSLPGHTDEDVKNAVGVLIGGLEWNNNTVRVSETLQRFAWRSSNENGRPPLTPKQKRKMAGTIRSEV
# Delta-type opioid receptor, sequence (P41143 whole entry): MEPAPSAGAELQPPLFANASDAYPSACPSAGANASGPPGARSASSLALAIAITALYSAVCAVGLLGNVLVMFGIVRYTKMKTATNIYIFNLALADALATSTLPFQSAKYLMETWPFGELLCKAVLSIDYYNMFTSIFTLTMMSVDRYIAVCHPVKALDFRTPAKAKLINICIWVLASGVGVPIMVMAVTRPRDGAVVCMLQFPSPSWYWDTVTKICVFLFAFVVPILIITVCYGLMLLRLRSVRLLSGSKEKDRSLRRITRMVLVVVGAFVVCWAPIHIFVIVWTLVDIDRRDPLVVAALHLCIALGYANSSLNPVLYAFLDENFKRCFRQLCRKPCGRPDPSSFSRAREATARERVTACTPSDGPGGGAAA
# CAAX prenyl protease 1, sequence (P47154 whole entry): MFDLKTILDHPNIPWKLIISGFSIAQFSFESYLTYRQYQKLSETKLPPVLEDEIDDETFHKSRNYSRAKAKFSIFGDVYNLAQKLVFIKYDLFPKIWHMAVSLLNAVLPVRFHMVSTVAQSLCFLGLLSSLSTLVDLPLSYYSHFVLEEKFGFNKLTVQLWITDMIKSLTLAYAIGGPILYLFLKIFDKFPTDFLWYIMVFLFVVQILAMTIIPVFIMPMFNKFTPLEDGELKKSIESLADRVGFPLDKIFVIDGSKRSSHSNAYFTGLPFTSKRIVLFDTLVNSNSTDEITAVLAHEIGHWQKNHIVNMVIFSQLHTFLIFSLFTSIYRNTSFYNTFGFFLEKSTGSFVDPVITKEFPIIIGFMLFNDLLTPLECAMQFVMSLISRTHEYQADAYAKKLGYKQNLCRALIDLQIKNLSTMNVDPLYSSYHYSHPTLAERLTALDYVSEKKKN
# Beta-arrestin-1, sequence (P49407 whole entry): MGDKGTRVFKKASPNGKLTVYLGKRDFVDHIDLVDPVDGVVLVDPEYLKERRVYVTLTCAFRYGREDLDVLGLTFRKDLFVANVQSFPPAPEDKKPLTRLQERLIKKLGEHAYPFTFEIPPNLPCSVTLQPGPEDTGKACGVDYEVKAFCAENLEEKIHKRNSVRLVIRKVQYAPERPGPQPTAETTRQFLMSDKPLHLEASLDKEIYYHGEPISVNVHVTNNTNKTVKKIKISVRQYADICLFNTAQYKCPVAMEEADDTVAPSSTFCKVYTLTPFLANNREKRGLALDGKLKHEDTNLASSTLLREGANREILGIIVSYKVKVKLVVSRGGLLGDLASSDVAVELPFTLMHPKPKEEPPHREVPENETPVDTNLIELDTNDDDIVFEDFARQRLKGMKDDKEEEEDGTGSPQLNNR
# Mu-type opioid receptor, sequence (P35372 whole entry): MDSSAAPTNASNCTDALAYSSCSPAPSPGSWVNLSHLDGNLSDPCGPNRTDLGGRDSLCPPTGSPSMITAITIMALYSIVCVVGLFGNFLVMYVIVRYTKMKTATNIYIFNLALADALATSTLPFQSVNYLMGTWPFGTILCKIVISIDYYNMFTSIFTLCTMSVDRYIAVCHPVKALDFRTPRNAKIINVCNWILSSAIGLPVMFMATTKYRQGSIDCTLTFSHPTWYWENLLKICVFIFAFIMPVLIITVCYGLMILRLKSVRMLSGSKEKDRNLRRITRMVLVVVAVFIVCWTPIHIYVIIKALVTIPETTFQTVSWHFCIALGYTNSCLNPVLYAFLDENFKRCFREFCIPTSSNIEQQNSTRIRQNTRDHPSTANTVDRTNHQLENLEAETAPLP
# 5-hydroxytryptamine receptor 5A, sequence (P47898 whole entry): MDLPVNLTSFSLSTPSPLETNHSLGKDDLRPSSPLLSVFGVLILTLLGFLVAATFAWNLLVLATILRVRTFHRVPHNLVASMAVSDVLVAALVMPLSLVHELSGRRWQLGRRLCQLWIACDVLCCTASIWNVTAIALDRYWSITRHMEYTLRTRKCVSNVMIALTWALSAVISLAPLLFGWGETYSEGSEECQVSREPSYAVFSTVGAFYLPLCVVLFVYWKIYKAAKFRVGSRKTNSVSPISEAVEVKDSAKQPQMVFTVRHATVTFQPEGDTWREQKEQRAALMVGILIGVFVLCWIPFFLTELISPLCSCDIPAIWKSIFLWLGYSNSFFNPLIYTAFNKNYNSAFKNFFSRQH
# Cyclin-dependent kinase 5/CDK5 activator 1, sequence (Q00535 whole entry): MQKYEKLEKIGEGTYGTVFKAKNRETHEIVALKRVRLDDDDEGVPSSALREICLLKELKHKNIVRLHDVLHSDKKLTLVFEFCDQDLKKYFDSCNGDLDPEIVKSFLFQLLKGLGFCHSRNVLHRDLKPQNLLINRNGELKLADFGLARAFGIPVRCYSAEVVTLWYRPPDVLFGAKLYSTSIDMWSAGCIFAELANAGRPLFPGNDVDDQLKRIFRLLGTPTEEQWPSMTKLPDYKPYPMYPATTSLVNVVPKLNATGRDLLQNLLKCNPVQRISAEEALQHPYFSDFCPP
# Cyclin-dependent kinase 5/CDK5 activator 1, sequence (Q15078 whole entry, further chain): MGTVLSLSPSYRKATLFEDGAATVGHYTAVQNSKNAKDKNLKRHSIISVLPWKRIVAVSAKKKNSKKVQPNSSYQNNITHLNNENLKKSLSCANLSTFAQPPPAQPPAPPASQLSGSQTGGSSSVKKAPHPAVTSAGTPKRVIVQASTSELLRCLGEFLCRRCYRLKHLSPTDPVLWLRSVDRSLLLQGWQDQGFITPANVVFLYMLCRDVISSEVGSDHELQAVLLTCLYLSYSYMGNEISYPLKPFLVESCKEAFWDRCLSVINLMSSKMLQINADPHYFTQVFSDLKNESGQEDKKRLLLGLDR
# G-protein coupled receptor 35, sequence (Q9HC97 whole entry): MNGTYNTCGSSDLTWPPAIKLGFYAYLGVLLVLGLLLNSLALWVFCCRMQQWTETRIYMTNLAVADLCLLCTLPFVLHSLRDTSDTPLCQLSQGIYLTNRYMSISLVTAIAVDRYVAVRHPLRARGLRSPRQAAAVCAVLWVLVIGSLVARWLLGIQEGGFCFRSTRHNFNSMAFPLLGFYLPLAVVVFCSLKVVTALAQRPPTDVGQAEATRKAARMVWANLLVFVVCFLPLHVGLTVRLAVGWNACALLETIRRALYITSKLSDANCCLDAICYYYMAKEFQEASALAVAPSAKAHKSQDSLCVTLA
# CAAX prenyl protease 2, sequence (Q9Y256 whole entry): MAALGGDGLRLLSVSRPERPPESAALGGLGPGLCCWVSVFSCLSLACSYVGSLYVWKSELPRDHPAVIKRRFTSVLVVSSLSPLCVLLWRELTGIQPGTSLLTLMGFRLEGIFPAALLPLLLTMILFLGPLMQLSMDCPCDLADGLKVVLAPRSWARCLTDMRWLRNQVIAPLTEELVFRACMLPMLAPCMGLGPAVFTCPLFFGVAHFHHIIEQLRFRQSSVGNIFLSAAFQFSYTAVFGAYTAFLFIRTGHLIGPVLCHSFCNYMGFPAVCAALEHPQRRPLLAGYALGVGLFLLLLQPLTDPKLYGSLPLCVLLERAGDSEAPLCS
# Phospholipase A2, sequence (P04054 whole entry): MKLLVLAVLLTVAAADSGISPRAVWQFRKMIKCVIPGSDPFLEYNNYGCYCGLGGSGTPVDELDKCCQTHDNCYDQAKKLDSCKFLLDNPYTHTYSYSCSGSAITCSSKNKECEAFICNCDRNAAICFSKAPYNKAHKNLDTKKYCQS
smiles,measurement,setting,value
CC1CCCC(/C=N/c2ccccc2C(=O)O)=C1O (configuration not stated),AC50,CAAX prenyl protease 1,4.3 µM (active)
same,AC50,CAAX prenyl protease 2,11.6 µM (active)
Cc1ccccc1N(CC(=O)N/N=C/c1ccc(F)cc1)C(=O)c1ccccc1,EC50,[1],2.11 µM (active)
same,EC50,[2],> 92.5 µM (inactive)
same,EC50,Mu-type opioid receptor,> 92.5 µM (inactive)
same,EC50,[3],> 92.5 µM (inactive)
CCN1/C(=C/C(C)=C/c2sc3ccccc3[n+]2CC)Sc2ccccc21,EC50,[4],77.7 µM (active)
same,IC50,[5],1.01 µM (active)
same,EC50,[6],< 0.1 µM (active)
same,EC50,[7],2.15 µM (active)
same,EC50,BJ [8],4.56 µM (active)
same,EC50,[9],1.68 µM (active)
same,EC50,BJ [10],6.01 µM (active)
same,EC50,[11],0.051 µM (active)
same,EC50,[12],> 180 µM (inactive)
same,EC50,BJ [13],5.48 µM (inconclusive)
same,EC50,[14],6.17 µM (active)
same,EC50,Streptococcus,2.74 µM (active)
same,AC50,[15],41.1 µM (active)
same,IC50,[16],64.4 µM (inactive)
same,IC50,Nonstructural protein 1,5.7 µM (active)
same,IC50,Cysteine protease ATG4B,8.62 µM (active)
same,IC50,Phospholipase A2,7.86 µM (active)
same,IC50,[17],19.4 µM (active)
same,EC50,BJ [18],1.74 µM (active)
same,IC50,Beta-arrestin-1,2.2 µM (active)
same,EC50,[19],18.3 µM (active)
